Source: PubChem BioAssay AID1963850 (Molecular Pharmacology Branch, DTP, NCI, 2024)

Test system: 192522-019-R-J2-PDC complex tumor spheroid viability
Assay: Anticancer human tumor 192522-019-R-J2-PDC patient-derived colon adenocarcinoma cell line growth inhibition [POLQ]
Details: for IC50: curve of first compound; for viability, T/C: stronger effect = lower value
Description: Multicellular complex tumor spheroid response to Polymerase (POL) inhibitors (novobiocin, ART-558, RP6685) in combination with a variety of drugs and investigational agents in selected tumor cell lines
The POL inhibitors (novobiocin, ART-558, and RP6685) were evaluated both individually and in combination with standard of care and investigational anticancer small molecules within a complex spheroid model of solid tumors. . Complex spheroids include a stromal component modeled by human endothelial cells (HUVEC) and fibroblasts modeled by human mesenchymal stem cells (MSCs). The concentration ranges selected for each drug and investigational agent were based upon clinically achievable concentrations if the clinical Cmax of the agent was known.
Compounds. The drugs and investigational agents: novobiocin (NSC847541), ART-558 (NSC835418), RP-6685 (NSC848927), peposertib (NSC802822), ceralasertib (NSC780249), elimusertib (NSC800525), camonsertib (NSC841442), AZD-1390 (NSC803789), olaparib (NSC753686), talazoparib (NSC767125), rucaparib (NSC756644), sotorasib (NSC818433), MRTX-1133 (NSC836407), SN-38 (NSC673596), topotecan (NSC609699), epotoside (NSC141540), doxorubicin (NSC123127), gemcitabine (NSC613327), 5-fluorouracil (NSC19893), paclitaxel (NSC125973), vemurafenib (NSC761431), MSA-2 (NSC828583), SN-011 (NSC837082), adavosertib (NSC754352), prexasertib (NSC758257), carboplatin (NSC241240) and oxaliplatin (NSC266046), were obtained from the National Cancer Institute (NCI) Developmental Therapeutics Program Chemical Repository (21). The FDA-approved anticancer drug set is available from the Developmental Therapeutics Program at https://dtp.cancer.gov/organization/dscb/obtaining/. […] The stock solutions were prepared in dimethyl sulfoxide (DMSO, Sigma-Aldrich, St. Louis, MO, cat. D2650), except for the platinum compounds which were prepared in saline (Quality Biological, Gaithersburg, MD, cat. 114-055-101), at 800-fold the tested concentration and stored at -70 degrees C prior to their use. All drugs and investigational agents were tested over a range starting from a high concentration at or near the clinical Cmax and decreasing in half-log increments. If the clinical Cmax for an agent had not been determined, the highest concentration tested was 10 microM, except for SN-38, which was tested at a high concentration of 1 microM.
Cell Culture. All cells were maintained in an incubator at 37 degrees C and 5% CO2 with 95% humidity. The PDC lines were cultured according to standard operating procedures established by the NCI PDMR (https://pdmr.cancer.gov). Table 3 of the manuscript, lists the cell lines along with the number of the three cell types plated to form the mct-spheroids and media for tumor cell growth. After thawing, all PDC lines, except 997537-175-T-J1-PDC and 415267-285-R-J2-PDC, were cultured in Matrigel-coated flasks prepared with a working solution of 1X Ham's F-12 nutrient mix, without supplementation (Thermo Fisher Scientific, cat. 11765054), 100 U/mL penicillin-streptomycin (Thermo Fisher Scientific, cat. 15140122), and 2.5% Matrigel (Corning Inc., Corning, NY, cat. 354248) for the first three passages. The two PDC lines 997537-175-T-J1-PDC and 415267-285-R-J2-PDC were cultured on uncoated flasks. The 857933-349-R-J2-PDC line was cultured in 6C/Colon 1B media containing advanced DMEM/F-12 (Thermo Fisher Scientific, cat. 12634028), 10 mM HEPES (Thermo Fisher Scientific, cat. 15630080), 1X GlutaMAX supplement (Thermo Fisher Scientific, cat. 35050061), 0.1 mg/mL primocin (InvivoGen, San Diego, CA, cat. ant-pm-2), 10% defined fetal bovine serum, heat inactivated (HyClone Laboratories Inc., Logan, UT, cat. SH30070.03HI), 50% L-WRN conditioned media (ATCC, cat. CRL-3276), 1.25 mM N-Acetyl-L-cysteine (Sigma-Aldrich, cat. A9165), 10 mM nicotinamide (Sigma-Aldrich, cat. N0636), 1X B-27 supplement (Thermo Fisher Scientific, cat. 17504044), 1X N-2 supplement (Thermo Fisher Scientific, cat. […]

[1] = second compound 0.0316 µM, first compound 0.0316 µM
[2] = second compound 0.0316 µM, first compound 0.1 µM
[3] = second compound 0.0316 µM, first compound 0.316 µM
[4] = second compound 0.0316 µM, first compound 1 µM
[5] = second compound 0.0316 µM, first compound 3.16 µM
[6] = second compound 0.0316 µM, first compound 10 µM
[7] = second compound 0.1 µM, first compound 0.0316 µM
[8] = second compound 0.1 µM, first compound 0.1 µM
[9] = second compound 0.1 µM, first compound 0.316 µM
[10] = second compound 0.1 µM, first compound 1 µM
[11] = second compound 0.1 µM, first compound 3.16 µM
[12] = second compound 0.1 µM, first compound 10 µM
[13] = second compound 0.316 µM, first compound 0.0316 µM
[14] = second compound 0.316 µM, first compound 0.1 µM
[15] = second compound 0.316 µM, first compound 0.316 µM
[16] = second compound 0.316 µM, first compound 1 µM
[17] = second compound 0.316 µM, first compound 3.16 µM
[18] = second compound 0.316 µM, first compound 10 µM
[19] = second compound 1 µM, first compound 0.0316 µM
[20] = second compound 1 µM, first compound 0.1 µM
[21] = second compound 1 µM, first compound 0.316 µM
[22] = second compound 1 µM, first compound 1 µM
[23] = second compound 1 µM, first compound 3.16 µM
[24] = second compound 1 µM, first compound 10 µM
[25] = second compound 3.16 µM, first compound 0.0316 µM
[26] = second compound 3.16 µM, first compound 0.1 µM
[27] = second compound 3.16 µM, first compound 0.316 µM
[28] = second compound 3.16 µM, first compound 1 µM
[29] = second compound 3.16 µM, first compound 3.16 µM
[30] = second compound 3.16 µM, first compound 10 µM
[31] = second compound 10 µM, first compound 0.0316 µM
[32] = second compound 10 µM, first compound 0.1 µM
[33] = second compound 10 µM, first compound 0.316 µM
[34] = second compound 10 µM, first compound 1 µM
[35] = second compound 10 µM, first compound 3.16 µM
[36] = second compound 10 µM, first compound 10 µM
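Also: spheroids exposed to drugs for seven days before reading.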
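For viability, T/C in this document: 100% = DMSO vehicle control viability in luminescence.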

COc1ccc([C@@H](O)c2cc(-c3ncnc4cc(N5CCOCC5)ccc34)c(F)cc2Cl)nn1 + Nc1ccc(C#CCN(C(=O)Cc2ncc(C(F)(F)F)cc2C(F)(F)F)c2ccc(F)cc2)nn1 was tested. Which IC50 (second compound 0.0316 µM) did it give?
The IC50 was greater than 10 µM.

And the IC50 (second compound 0.1 µM)?
Its IC50 is greater than 10 µM.

What about the IC50 (second compound 0.316 µM) of the same compound?
The IC50 was greater than 10 µM.

What about the IC50 (second compound 1 µM) of the same compound?
Its IC50 is greater than 10 µM.

What about the IC50 (second compound 3.16 µM) of the same compound?
Its IC50 is greater than 10 µM.

What about the IC50 (second compound 10 µM) of the same compound?
Its IC50 is greater than 10 µM.

What about the viability, T/C [1] of the same compound?
Its viability, T/C is 116%.

And the viability, T/C [2]?
Its viability, T/C is 97.3%.

And the viability, T/C [3]?
Its viability, T/C is 93.7%.

And the viability, T/C [4]?
The viability, T/C was 85.8%.

What about the viability, T/C [5] of the same compound?
Its viability, T/C is 75.8%.

What about the viability, T/C [6] of the same compound?
Its viability, T/C is 55.4%.

And the viability, T/C [7]?
The viability, T/C was 106%.

And the viability, T/C [8]?
Its viability, T/C is 97.4%.

And the viability, T/C [9]?
Its viability, T/C is 98.7%.

And the viability, T/C [10]?
The viability, T/C was 90.1%.

What about the viability, T/C [11] of the same compound?
The viability, T/C was 86.2%.

And the viability, T/C [12]?
Its viability, T/C is 65.5%.

And the viability, T/C [13]?
Its viability, T/C is 100%.

What about the viability, T/C [14] of the same compound?
The viability, T/C was 101%.

What about the viability, T/C [15] of the same compound?
Its viability, T/C is 102%.

And the viability, T/C [16]?
Its viability, T/C is 102%.

And the viability, T/C [17]?
Its viability, T/C is 75.3%.

And the viability, T/C [18]?
The viability, T/C was 59.9%.

And the viability, T/C [19]?
The viability, T/C was 102%.

And the viability, T/C [20]?
Its viability, T/C is 104%.

What about the viability, T/C [21] of the same compound?
Its viability, T/C is 98.1%.

What about the viability, T/C [22] of the same compound?
The viability, T/C was 90.8%.

What about the viability, T/C [23] of the same compound?
The viability, T/C was 93.2%.

And the viability, T/C [24]?
Its viability, T/C is 75%.

And the viability, T/C [25]?
The viability, T/C was 107%.

And the viability, T/C [26]?
The viability, T/C was 101%.

And the viability, T/C [27]?
The viability, T/C was 99%.

And the viability, T/C [28]?
Its viability, T/C is 93.6%.

And the viability, T/C [29]?
Its viability, T/C is 84.1%.

What about the viability, T/C [30] of the same compound?
The viability, T/C was 65.9%.

And the viability, T/C [31]?
Its viability, T/C is 104%.

What about the viability, T/C [32] of the same compound?
The viability, T/C was 111%.

And the viability, T/C [33]?
The viability, T/C was 102%.

And the viability, T/C [34]?
The viability, T/C was 102%.

And the viability, T/C [35]?
The viability, T/C was 82%.

What about the viability, T/C [36] of the same compound?
The viability, T/C was 73.2%.

How did the IC50 (second compound 0.0316 µM) turn out when O=c1[nH]cc(F)c(=O)[nH]1 + Nc1ccc(C#CCN(C(=O)Cc2ncc(C(F)(F)F)cc2C(F)(F)F)c2ccc(F)cc2)nn1 was run?
Its IC50 is greater than 10 µM.

And the IC50 (second compound 0.1 µM)?
The IC50 was greater than 10 µM.

What about the IC50 (second compound 0.316 µM) of the same compound?
Its IC50 is greater than 10 µM.

And the IC50 (second compound 1 µM)?
Its IC50 is greater than 10 µM.

And the IC50 (second compound 3.16 µM)?
Its IC50 is greater than 10 µM.

And the IC50 (second compound 10 µM)?
Its IC50 is greater than 10 µM.

What about the viability, T/C [1] of the same compound?
The viability, T/C was 99.2%.

What about the viability, T/C [2] of the same compound?
The viability, T/C was 98.4%.

What about the viability, T/C [3] of the same compound?
The viability, T/C was 92.5%.

What about the viability, T/C [4] of the same compound?
Its viability, T/C is 90.4%.

And the viability, T/C [5]?
Its viability, T/C is 96.4%.

And the viability, T/C [6]?
The viability, T/C was 90.3%.

And the viability, T/C [7]?
The viability, T/C was 104%.

And the viability, T/C [8]?
Its viability, T/C is 101%.

What about the viability, T/C [9] of the same compound?
The viability, T/C was 95%.

What about the viability, T/C [10] of the same compound?
Its viability, T/C is 95.9%.

And the viability, T/C [11]?
The viability, T/C was 91.2%.

And the viability, T/C [12]?
The viability, T/C was 85.6%.

And the viability, T/C [13]?
The viability, T/C was 104%.

What about the viability, T/C [14] of the same compound?
The viability, T/C was 93.5%.

What about the viability, T/C [15] of the same compound?
The viability, T/C was 96.4%.

What about the viability, T/C [16] of the same compound?
Its viability, T/C is 85.3%.

And the viability, T/C [17]?
Its viability, T/C is 88.2%.

What about the viability, T/C [18] of the same compound?
The viability, T/C was 96.4%.

What about the viability, T/C [19] of the same compound?
Its viability, T/C is 104%.

And the viability, T/C [20]?
Its viability, T/C is 98.1%.

What about the viability, T/C [21] of the same compound?
The viability, T/C was 98.5%.

What about the viability, T/C [22] of the same compound?
The viability, T/C was 92.2%.

And the viability, T/C [23]?
Its viability, T/C is 96%.

What about the viability, T/C [24] of the same compound?
Its viability, T/C is 89.2%.

What about the viability, T/C [25] of the same compound?
Its viability, T/C is 102%.

And the viability, T/C [26]?
The viability, T/C was 98.9%.

And the viability, T/C [27]?
The viability, T/C was 92.8%.

And the viability, T/C [28]?
The viability, T/C was 96.6%.

And the viability, T/C [29]?
The viability, T/C was 95.8%.

What about the viability, T/C [30] of the same compound?
The viability, T/C was 90.1%.

And the viability, T/C [31]?
The viability, T/C was 116%.

And the viability, T/C [32]?
The viability, T/C was 95.1%.

And the viability, T/C [33]?
Its viability, T/C is 91.1%.

And the viability, T/C [34]?
Its viability, T/C is 85.9%.

What about the viability, T/C [35] of the same compound?
Its viability, T/C is 93.5%.

What about the viability, T/C [36] of the same compound?
The viability, T/C was 90.5%.
